Test results reported in patent US11866720B2, “Transgenic or non-transgenic plants with mutated protoporphyrinogen oxidase having increased tolerance to herbicides” (priority 2013, dated 2024).
Like-named read-outs stand apart in the source and are kept apart here.

Tested on: transgenic soybean expressing mutated PPO
Format: in vivo, Glycine max
Settings: T1 soybean, field; for injury (1-5 point scale): benzoxazin (BAS 850H) 100 g ai/ha, 3 days after treatment
Wherever injury (1-5 point scale) is given: key: 1: no obvious damage (no phytotoxicity); 2: minor amount of leaf damage, plant will survive; 3: moderate amount of leaf damage, plant will survive; 4: severe amount of leaf damage, plant will survive; 5: no surviving plants - all plants dead/dying.

In the case of `C#CCN1C(=O)C(F)(F)Oc2cc(F)c(-n3c(=O)n(C)c(=S)n(C)c3=O)cc21`, the “Injury rating (1-5 point scale)” value (AmtuPPX2L_R128A_F420V (event 10), BAS 850H: treatment 1 100 g ai/ha, treatment 2 0, 7DAT) is reported as 3.5, the “Injury rating (1-5 point scale)” value (AmtuPPX2L_R128A_F420V (event 10), BAS 850H: treatment 1 300 g ai/ha, treatment 2 300 g ai/ha, 14 DAT) is reported as 3 and the “injury (1-5 point scale)” value (SDS-10648 AmtuPPX2L R128A_F420I) is reported as 3. For the same compound, the “injury (1-5 point scale)” value (SDS-10791 AmtuPPX2L R128A_F420I) was 2, the “injury (1-5 point scale)” value (SDS-11014 AmtuPPX2L R128A_F420I) was 2 and the “injury (1-5 point scale)” value (SDS-11034 AmtuPPX2L L397D_F420V) was 3. The “injury (1-5 point scale)” value (SDS-11035 AmtuPPX2L R128A_F420V) was 2, the “injury (1-5 point scale)” value (SDS-11052 AmtuPPX2L R128A_F420M) was 3 and the “Injury rating (1-5 point scale)” value (wild type, BAS 850H: treatment 1 100 g ai/ha, treatment 2 0, 7DAT) was 5. For the same compound, the “Injury rating (1-5 point scale)” value (wild type, BAS 850H: treatment 1 300 g ai/ha, treatment 2 300 g ai/ha, 14 DAT) was 5 and the “injury (1-5 point scale)” value (wild type) was 5.
